Assay results published in patent US11766447B2, “3′3′-cyclic dinucleotide analogue comprising a cyclopentanyl modified nucleotide as sting modulator” (INSTITUTE OF ORGANIC CHEMISTRY AND BIOCHEMISTRY ASCR, V.V.I., priority 2019, dated 2023).
Where two headings read alike, the source gives them in different places.

What was measured:
WT STING [1] = molecular target: T1, WT STING (Homo sapiens, UniProt Q86WV6, H232R); assay: Digitonin assay using 293T wtSTING-FL reporter cells; type: cell-based; parameters: host or cells: 293T (ATCC CRL-3216), stably transfected, with 4xISRE firefly luciferase reporter; settings: 293T wtSTING-FL cells, ISRE firefly luciferase; compounds in Digitonin buffer 30 minutes, then 5 hours; 8-point curve
Text: Two complementary oligonucleotides of the sequence […] […] […] […] […] The oligonucleotides were mixed in equal molar amounts, hybridized, and cleaved by restriction endonucleases HindIII (cat. #. R0104S, NEB, Ipswich, USA) and BglII (cat. #R0144S, NEB, Ipswich, USA). Ultimately, they were ligated into plasmid pGL4.27 (cat. #E6651, Promega, Madison, USA) linearized with the same enzymes. As result the sequence with four ISRE sites was placed upstream of the minimum promoter of firefly luciferase reporter gene.
After 5 minutes incubation at room temperature (RT), 250 μL of the mixture was added dropwise to the cells in one well. Cells were incubated 36 hours at 37° C. with 5% CO2, and then detached with 0.05% Trypsin and 0.22 g/L EDTA (both cat. #L0941, Biowest, Riverside, USA).
Transfected cells were seeded onto poly-D-lysine coated six well plates at density 50,000 cells per 1 cm^2 in DMEM medium with high glucose containing 10% heat inactivated FBS, 30 μg/mL blasticidin (cat. #ant-b1-05, InvivoGen, San Diego, USA), 0.06 mg/ml Penicillin G and 0.1 mg/ml Streptomycin Sulfate (both cat. #. L0018, Biowest, Riverside, USA). The medium was replenished every 3-4 days until visible colonies of cells resistant to blasticidin were formed.
Blasticidin resistant cells stably expressing WT STING were further transfected with […] plasmid following the same procedure as described above. […] Homogeneous culture of stably double transfected cells was prepared by limiting dilution of cells in 96 well plates and wells with cells were selected that originated from a single cell.
The medium was removed next day and three fold serial dilutions of compounds in Digitonin buffer containing 50 mmol·l^−1 HEPES (cat. #H3375, Sigma Aldrich, Czech Republic) pH 7.0, 100 mmol·l^−1 KCl, 3 mmol·l^−1 MgCl2, 0.1 mmol·l^−1 DTT (cat. #D0632, Sigma Aldrich, Czech Republic), 85 mmol·l^−1 Sucrose (cat. #S7903, Sigma Aldrich, Czech Republic), 0.2% BSA (cat. #A2153, Sigma Aldrich, Czech Republic), 1 mmol·l^−1 ATP (cat. #A1852, Sigma Aldrich, Czech Republic), 0.1 mmol·l^−1 GTP (cat. #G8877, Sigma Aldrich, Czech Republic), and 10 μg/mL Digitonin A (cat. #D141, Sigma Aldrich, Czech Republic) were added to the cells. The buffer was removed after 30 minutes incubation at 37° C. with 5% CO2, the cells were washed once with 100 μl of cultivation medium, and 100 μl of medium was added to each well. The plates with cells were incubated for 5 hours at 37° C. with 5% CO2, 50 μl of the medium was removed and 30 μl of ONE-Glo™ Luciferase Assay System reagent (cat. #E6120, Promega, Madison, USA) was added to each well. Luminescence was read on Synergy H1 (Biotek, Winooski, USA). GraphPad Prism (La Jolla, USA) was used to calculate the 50% effective concentration ([…] from an 8-point dose-response curve.
Target sequence in this assay (Q86WV6 whole entry H232R): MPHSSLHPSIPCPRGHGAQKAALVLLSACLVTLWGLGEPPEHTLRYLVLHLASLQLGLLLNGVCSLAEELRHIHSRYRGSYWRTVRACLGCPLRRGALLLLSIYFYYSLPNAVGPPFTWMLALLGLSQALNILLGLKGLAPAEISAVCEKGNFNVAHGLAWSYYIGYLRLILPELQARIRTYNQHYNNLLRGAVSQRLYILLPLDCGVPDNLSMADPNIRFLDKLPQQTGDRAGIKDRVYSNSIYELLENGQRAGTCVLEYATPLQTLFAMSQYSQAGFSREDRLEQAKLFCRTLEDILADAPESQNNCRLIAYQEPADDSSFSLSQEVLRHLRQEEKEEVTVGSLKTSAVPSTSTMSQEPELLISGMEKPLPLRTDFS

AQ STING (G230A-R293Q) = molecular target: T2, AQ STING (G230A-R293Q) (Homo sapiens, UniProt Q86WV6, G230A/H232R/R293Q); assay: Differential scanning fluorimetry (DSF) with AQ STING; type: binding; settings: thermal shift vs apoprotein; 150 μM CDN; truncated human AQ STING 0.1 mg/ml
T2 construct: 8xHis (N, cleaved yes); SUMO (N, cleaved yes); made in house; host or cells: E. coli Rosetta-gami B (DE3)
Protocol: (§1) Purified PCR products were cleaved with restriction enzymes BamHI (cat. #R0136S, NEB, Ipswich, USA) and NotI (cat. #R0189S, NEB, Ipswich, USA) and cloned into the pSUMO vector linearized with the identical enzymes.
(§2) DNase I (cat. #D5025, Sigma Aldrich, Czech Republic) and RNase A (cat. #R6513, Sigma Aldrich, Czech Republic) were added (final concentration 50 μg/ml) together with MgCl2 (final concentration 5 mmol·l^−1) to the homogenate and bacteria were lysed using French Press G-M™ High-Pressure Cell Press Homogenizer (1500 psi, 3 cycles). […] The resin was poured into a chromatography column, washed with 50 ml buffer A (50 mmol·l^−1 TrisCl (pH 8.0), 800 mmol·l^−1 NaCl, 3 mmol·l^−1 β-mercaptoethanol; 10% glycerol; 20 mmol·l^−1 imidazol) and 8-His-SUMO tagged STING proteins were eluted with 15 ml buffer A containing 300 mmol·l^−1 imidazole. […] Proteins were concentrated with Amicon® Ultra-15 10 K device (cat. #UFC901008, Merck Millipore, Billerica, USA) and flash frozen in liquid N2.
(§3) 20 μL solutions of the reaction mixtures were pipetted in triplicates into 96 well optical reaction plates and thermal denaturation of samples were performed on real time PCR cycler (LightCycler® 480 Instrument II—Roche, Basel, Switzerland). The first derivative of the thermal denaturation curves was performed to calculate denaturing temperatures of STING-CDN complexes and STING apoproteins. The thermal shift for each CDN was calculated by subtracting the average denaturing temperature of STING apoprotein from the average denaturing temperature of STING CDN complex.

WT STING [2] = molecular target: T1, WT STING; assay: Differential scanning fluorimetry (DSF) with WT STING; type: binding; parameters: 8xHis (N, cleaved yes); SUMO (N, cleaved yes); made in house; host or cells: E. coli Rosetta-gami B (DE3); settings: thermal shift vs apoprotein; 150 μM CDN; truncated human WT STING 0.1 mg/ml
Protocol: as §1, §2, §3
Target sequence in this assay (Q86WV6 140-343 H232R): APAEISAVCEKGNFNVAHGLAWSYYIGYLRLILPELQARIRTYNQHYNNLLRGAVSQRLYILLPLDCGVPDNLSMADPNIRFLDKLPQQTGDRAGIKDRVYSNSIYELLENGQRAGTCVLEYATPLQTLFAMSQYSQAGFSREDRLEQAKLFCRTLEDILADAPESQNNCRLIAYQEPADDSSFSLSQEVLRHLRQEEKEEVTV

[3] = tested on: peripheral blood mononuclear cells (PBMC); assay: Peripheral blood mononuclear cell (PBMC) assay; type: cell-based; settings: 1 h with compounds, washed, 15 hour incubation, average of one to four donors
Protocol: Selected compounds were tested in an in vitro peripheral blood mononuclear cell (PBMC) assay. […] Serially diluted tested compounds were added to wells in 50 μl of cultivation medium and cell were incubated with compounds for 1 h at 37° C. with 5% CO2. Plates with cells were then spun 500 g for 5 minutes and medium was removed. Cells were washed twice with the cell culture medium by the use of centrifugation and gently resuspended in 100 μl medium without compounds. After 15 hour incubation at 37° C. with 5% CO2, the cell culture medium was collected and the levels of interferon-alpha (INF-α), interferon-gamma (INF-γ) and tumor necrosis factor-alpha (TNF-α) were determined with ProcartaPlex Assays (ThermoFisher, Waltham, USA) and MAGPIX System (Merck KGaA, Darmstadt, Germany). […] Values reported are an average of runs from one to four donors.

T2 sequence (Q86WV6 140-343 G230A/H232R/R293Q): as the sequence (Q86WV6 140-343 H232R) above, with G91A, R154Q counted along it

Row | EC50 (WT STING [1]) [nM] | DSF ΔTm (° C.) AQ STING (AQ STING (G230A-R293Q)) [°C] | DSF ΔTm (° C.) WT STING (WT STING [2]) [°C] | ΔTm at 150 µM (AQ STING (G230A-R293Q)) [°C] | SMILES | other results
1 | 10 | – | – | 14.8 | Nc1ncnc2c1ncn2[C@@H]1C[C@@H]2COP(=O)(S)O[C@@H]3[C@@H](COP(=O)(S)O[C@H]2[C@H]1F)C[C@@H](n1cnc2c(N)ncnc21)[C@@H]3F (single isomer, unassigned) [Compound 128a] | ΔTm at 150 µM (WT STING [2]): 9.6 °C
2 | 100 | – | – | 14 | Nc1nc2c(ncn2[C@H]2CC3OP(=O)(S)OC[C@H]4O[C@@H](n5cnc6c(N)ncnc65)C(F)C4OP(=O)(S)OC[C@H]3C2)c(=O)[nH]1 (single isomer, unassigned) [Compound 129a] | ΔTm at 150 µM (WT STING [2]): 6.4 °C
3 | 200 | 13.2 | 7.0 | – | Nc1nc2c(ncn2[C@H]2CC3OP(=O)(S)OC[C@H]4O[C@@H](n5cnc6c(N)ncnc65)C(F)C4OP(=O)(S)OC[C@H]3C2)c(=O)[nH]1 (single isomer, unassigned) [Compound 129b] | –
4 | 400 | – | 6.4 | 13.2 | Nc1nc2c(ncn2[C@@H]2C[C@@H]3COP(=O)(S)O[C@H]4[C@@H](F)[C@H](n5cnc6c(N)ncnc65)O[C@@H]4COP(=O)(S)O[C@H]3C2)c(=O)[nH]1 (single isomer, unassigned) [Compound 129c] | –
5 | 8 | – | – | 19.9 | Nc1nc2c(ncn2[C@@H]2O[C@@H]3COP(=O)(S)O[C@@H]4[C@@H](COP(=O)(S)O[C@H]3[C@H]2F)C[C@@H](n2cnc3c(N)ncnc32)[C@@H]4F)c(=O)[nH]1 (single isomer, unassigned) [Compound 132a] | ΔTm at 150 µM (WT STING [2]): 12.9 °C
6 | 3000 | 3.9 | 0.3 | – | Nc1ncnc2c1ncn2[C@@H]1C[C@@H]2COP(=O)(O)OC3C(F)[C@H](n4cnc5c(N)ncnc54)O[C@@H]3COP(=O)(S)OC2C1F (single isomer, unassigned) [Compound 141a] | –
7 | 50 | 11.6 | 5.3 | – | Nc1ncnc2c1ncn2[C@@H]1C[C@@H]2COP(=O)(O)OC3C(F)[C@H](n4cnc5c(N)ncnc54)O[C@@H]3COP(=O)(S)OC2C1F (single isomer, unassigned) [Compound 141b] | –
8 | 30 | – | – | – | Nc1ncnc2c1ncn2[C@@H]1C[C@@H]2COP(=O)(S)O[C@H]3C[C@H](n4cnc5c(N)ncnc54)O[C@@H]3COP(=O)(S)O[C@H]2[C@H]1F (single isomer, unassigned) [Compound 142a] | –

The remaining lines, values behind:

Row | SMILES | EC50 (WT STING [1]) [nM] | DSF ΔTm (° C.) AQ STING (AQ STING (G230A-R293Q)) [°C] | DSF ΔTm (° C.) WT STING (WT STING [2]) [°C] | ΔTm at 150 µM (AQ STING (G230A-R293Q)) [°C] | other results
9 | Nc1ncnc2c1ncn2[C@@H]1C[C@@H]2COP(=O)(S)OC3C(F)[C@H](n4cnc5c(N)ncnc54)O[C@@H]3COP(=O)(S)OC2C1F (single isomer, unassigned) [Compound 102c] | 10 | – | – | – | –
10 | Nc1nc2c(ncn2[C@@H]2C[C@@H]3COP(=O)(O)OC4C(F)[C@H](n5cnc6c(N)ncnc65)O[C@@H]4COP(=O)(O)OC3C2O)c(=O)[nH]1 (single isomer, unassigned) [Compound 103] | 10 | 16.6 | 7.6 | – | –
11 | Nc1nc2c(ncn2[C@@H]2C[C@@H]3COP(=O)(O)OC4C(F)[C@H](n5cnc6c(N)ncnc65)O[C@@H]4COP(=O)(O)OC3C2O)c(=O)[nH]1 (single isomer, unassigned) [Compound 105] | 1600 | 7.0 | 0.8 | – | –
12 | Nc1nc2c(ncn2[C@@H]2O[C@@H]3COP(=O)(O)OC4C(O)[C@H](n5cnc6c(N)ncnc65)C[C@@H]4COP(=O)(O)OC3C2F)c(=O)[nH]1 (single isomer, unassigned) [Compound 109] | 10 | – | 8.9 | 18.5 | –
13 | Nc1nc2c(ncn2[C@@H]2O[C@@H]3COP(=O)(O)OC4C(O)[C@H](n5cnc6c(N)ncnc65)C[C@@H]4COP(=O)(O)OC3C2F)c(=O)[nH]1 (single isomer, unassigned) [Compound 111] | 70 | 13.7 | 4.1 | – | –
14 | CC(C)(C)C(=O)OCSP1(=O)OC[C@H]2O[C@@H](n3cnc4c(=O)[nH]c(N)nc43)[C@H](F)[C@@H]2OP(=O)(SCOC(=O)C(C)(C)C)OC[C@H]2C[C@@H](n3cnc4c(N)ncnc43)[C@H](F)[C@@H]2O1 (single isomer, unassigned) [Compound 150a] | – | – | – | – | EC50 ([3]; interferon-alpha level, read-out: PBMC EC50 (μM) IFN-α): 1 µM; EC50 ([3]; interferon-gamma level, read-out: PBMC EC50 (μM) IFN-γ): 0.7 µM; EC50 ([3]; tumor necrosis factor-alpha level, read-out: PBMC EC50 (μM) TNF-α): 0.7 µM
15 | Nc1ncnc2c1ncn2[C@@H]1O[C@@H]2COP(=O)(O)O[C@H]3[C@@H](O)[C@H](n4cnc5c(N)ncnc54)O[C@@H]3COP(=O)(O)O[C@H]2[C@H]1O [3′3′c-di-AMP, reference compound] | 300 | 9.3 | 2.6 | – | –
16 | COC1C2OP(=O)(O)OC[C@H]3C[C@@H](n4cnc5c(=O)[nH]c(N)nc54)C(O)C3OP(=O)(O)OC[C@H]2O[C@H]1n1cnc2c(N)ncnc21 (stereo partly drawn) [Compound 118, (6R,8R,15R,17R)-17-(2-amino-6-oxo-6,9-dihydro-1H-purin-9-yl)-8-(6-amino-9H-purin-9-yl)-3,12,18-trihydroxy-9-methoxy-2,4,7,11,13-pentaoxa-3λ^5,12λ^5-diphosphatricyclo[13.3.0.0^6,10]octadecane-3,12-dione] | – | – | – | 1.5 | ΔTm at 150 µM (WT STING [2]): 0.5 °C
